Experimental data from US8735322B2, “Herbicides” (Syngenta Limited, priority 2008, dated 2014).

Legend:
Format in all cases: in vivo
Setaria faberi (SETFA) [1] = assay: Example B post-emergence herbicidal activity, glasshouse pot test; conditions: 312 h, rate 1000 g/ha, evaluated after 13 days, read-out: herbicidal damage SETFA (100=total damage to plant; 0=no damage to plant)
Experimental: (§1) Seeds of a variety of test species were sown in standard soil in pots. After cultivation for one day (pre-emergence) or after 8 days cultivation (post-emergence) under controlled conditions in a glasshouse (at 24/16° C., day/night; 14 hours light; 65% humidity), the plants were sprayed with an aqueous spray solution derived from the formulation of the technical active ingredient in acetone/water (50:50) solution containing 0.5% Tween 20 (polyoxyethelyene sorbitan monolaurate, CAS RN 9005-64-5). The test plants were then grown in a glasshouse under controlled conditions in a glasshouse (at 24/16° C., day/night; 14 hours light; 65% humidity) and watered twice daily. After 13 days for pre and post-emergence, the test was evaluated (100=total damage to plant; 0=no damage to plant). Alopecurus myosuroides (ALOMY), Avena fatua (AVEFA), Setaria faberi (SETFA), Echinochloa crus-galli (ECHCG), Solanum nigrum (SOLNI) and Amaranthus retroflexus (AMARE) Post-Emergence Activity

[2] = system: Alopecurus myosuroides (ALOMY); assay: as above; conditions: 312 h, rate 1000 g/ha, evaluated after 13 days, read-out: herbicidal damage ALOMY (100=total damage to plant; 0=no damage to plant)
Experimental: as §1

[3] = system: Echinochloa crus-galli (ECHCG); assay: as above; conditions: 312 h, rate 1000 g/ha, evaluated after 13 days, read-out: herbicidal damage ECHCG (100=total damage to plant; 0=no damage to plant)
Experimental: as §1

Solanum nigrum (SOLNI) [4] = assay: as above; conditions: 312 h, rate 1000 g/ha, evaluated after 13 days, read-out: herbicidal damage SOLNI (100=total damage to plant; 0=no damage to plant)
Experimental: as §1

[5] = system: Amaranthus retroflexus (AMARE); assay: as above; conditions: 312 h, rate 1000 g/ha, evaluated after 13 days, read-out: herbicidal damage AMARE (100=total damage to plant; 0=no damage to plant)
Experimental: as §1

Avena fatua (AVEFA) [6] = assay: as above; conditions: 312 h, rate 1000 g/ha, evaluated after 13 days, read-out: herbicidal damage AVEFA (100=total damage to plant; 0=no damage to plant)
Experimental: as §1

Setaria faberi (SETFA) [7] = assay: Example B pre-emergence herbicidal activity, glasshouse pot test; conditions: 312 h, rate 1000 g/ha, evaluated after 13 days, read-out: herbicidal damage SETFA (100=total damage to plant; 0=no damage to plant)
Experimental: as §1, with “Pre-Emergence” for “Post-Emergence”

[8] = system: Alopecurus myosuroides (ALOMY); assay: as above; conditions: 312 h, rate 1000 g/ha, evaluated after 13 days, read-out: herbicidal damage ALOMY (100=total damage to plant; 0=no damage to plant)
Experimental: as §1, with “Pre-Emergence” for “Post-Emergence”

[9] = system: Echinochloa crus-galli (ECHCG); assay: as above; conditions: 312 h, rate 1000 g/ha, evaluated after 13 days, read-out: herbicidal damage ECHCG (100=total damage to plant; 0=no damage to plant)
Experimental: as §1, with “Pre-Emergence” for “Post-Emergence”

Solanum nigrum (SOLNI) [10] = assay: as above; conditions: 312 h, rate 1000 g/ha, evaluated after 13 days, read-out: herbicidal damage SOLNI (100=total damage to plant; 0=no damage to plant)
Experimental: as §1, with “Pre-Emergence” for “Post-Emergence”

[11] = system: Amaranthus retroflexus (AMARE); assay: as above; conditions: 312 h, rate 1000 g/ha, evaluated after 13 days, read-out: herbicidal damage AMARE (100=total damage to plant; 0=no damage to plant)
Experimental: as §1, with “Pre-Emergence” for “Post-Emergence”

Avena fatua (AVEFA) [12] = assay: as above; conditions: 312 h, rate 1000 g/ha, evaluated after 13 days, read-out: herbicidal damage AVEFA (100=total damage to plant; 0=no damage to plant)
Experimental: as §1, with “Pre-Emergence” for “Post-Emergence”

| Compound | pest or weed control at 1000 g/ha (Setaria faberi (SETFA) [1]) [%] | pest or weed control at 1000 g/ha [2] [%] | pest or weed control at 1000 g/ha [3] [%] | pest or weed control at 1000 g/ha (Solanum nigrum (SOLNI) [4]) [%] | pest or weed control at 1000 g/ha [5] [%] | pest or weed control at 1000 g/ha (Avena fatua (AVEFA) [6]) [%] | pest or weed control at 1000 g/ha (Setaria faberi (SETFA) [7]) [%] | pest or weed control at 1000 g/ha [8] [%] | pest or weed control at 1000 g/ha [9] [%] | pest or weed control at 1000 g/ha (Solanum nigrum (SOLNI) [10]) [%] | pest or weed control at 1000 g/ha [11] [%] | pest or weed control at 1000 g/ha (Avena fatua (AVEFA) [12]) [%] |
| --- | --- | --- | --- | --- | --- | --- | --- | --- | --- | --- | --- | --- |
| Cc1ccc(-c2cccnc2OCC2CC2)cc1C1=C(O)CC(CC2CCOCC2)CC1=O (stereo not drawn) [Compound A-27] | 60 | 10 | 30 | 0 | 0 | 0 | 0 | 0 | 0 | 0 | 0 | 0 |
| Cc1ccc(-c2ccc(OC(F)(F)F)cc2)cc1C1=C(O)CC(CC2CCOCC2)CC1=O (stereo not drawn) [Compound A-29] | 60 | 10 | 60 | 20 | 70 | 0 | 0 | 20 | 20 | 30 | 50 | 0 |
| CCc1cc(-c2ccc(C)cc2)cc(CC)c1C1=C(O)CC(CC2CCOCC2)CC1=O (stereo not drawn) [Compound A-33] | 80 | 30 | 100 | 70 | 60 | 70 | 100 | 50 | 90 | 0 | 0 | 60 |
| CCc1cc(-c2ccc(Cl)cc2)cc(CC)c1C1=C(O)CC(CC2CCOCC2)CC1=O (stereo not drawn) [Compound A-34] | 90 | 50 | 100 | 0 | 20 | 100 | 90 | 50 | 100 | 0 | 0 | 60 |
| Cc1ccc(-c2cc(C)c(C3=C(O)CC(CC4CCOCC4)CC3=O)c(C)c2)cc1 (stereo not drawn) [Compound A-36] | 100 | 70 | 100 | 50 | 0 | 70 | 100 | 60 | 90 | 0 | 0 | 40 |
| Cc1cc(-c2ccc(Cl)cc2)cc(C)c1C1=C(O)CC(CC2CCOCC2)CC1=O (stereo not drawn) [Compound A-37] | 100 | 90 | 100 | 70 | 40 | 100 | 100 | 80 | 100 | 20 | 20 | 90 |
| Cc1cc(-c2ccc(C(F)(F)F)cc2)cc(C)c1C1=C(O)CC(CC2CCOCC2)CC1=O (stereo not drawn) [Compound A-38] | 100 | 30 | 90 | 20 | 0 | 40 | 100 | 30 | 100 | 0 | 0 | 20 |
| Cc1ccc(-c2ccc(F)cc2)cc1C1=C(O)CC(CC2CCOCC2)CC1=O (stereo not drawn) [Compound A-39] | 90 | 60 | 80 | 0 | 0 | 80 | 0 | 0 | 0 | 0 | 0 | 0 |
| Cc1ccc(-c2ccc(F)c(F)c2)cc1C1=C(O)CC(CC2CCOCC2)CC1=O (stereo not drawn) [Compound A-40] | 90 | 70 | 100 | 0 | 30 | 70 | 0 | 0 | 30 | 0 | 0 | 0 |
| Cc1cc(-c2ccccc2)cc(C)c1C1=C(O)CC(CC2CCOCC2)CC1=O (stereo not drawn) [Compound A-41] | 100 | 90 | 100 | 40 | 40 | 70 | 100 | 90 | 100 | 0 | 0 | 80 |
| CCc1ccc(-c2ccc(Cl)cc2)cc1C1=C(O)CC(CC2OCCO2)CC1=O (stereo not drawn) [Compound A-45] | 100 | 100 | 100 | 10 | 0 | 100 | 90 | 60 | 100 | 100 | 0 | 70 |
| Cc1ccc(-c2ccc(Cl)cc2)cc1C1=C(O)CC(CC2OCCO2)CC1=O (stereo not drawn) [Compound A-46, 2-(4′-Chloro-4-methylbiphenyl-3-yl)-5-[1,3]dioxolan-2-ylmethylcyclohexane-1,3-dione] | 90 | 90 | 100 | 20 | 20 | 80 | 90 | 20 | 40 | 0 | 0 | 40 |
| Cc1cc(-c2ccc(C)c(C3=C(O)CC(CC4CCOCC4)CC3=O)c2)ccc1F (stereo not drawn) [Compound A-48] | 80 | 60 | 80 | 0 | 10 | 60 | 20 | 0 | 20 | 0 | 0 | 0 |
